Earlier results, collected in patent publication US12534749B2, “Monoacylated MEL-producing microorganism” (NATIONAL INSTITUTE OF ADVANCED INDUSTRIAL SCIENCE AND …, priority 2019, dated 2026).

Settings: known value, T. Fukuoka et al., Carbohydrate Research 351 (2012) 81-86

- CMC: 3.1 µM
Substance: diacylated MEL-B
